These results are taken from ChEMBL document CHEMBL4507319 (2021).

In experiment [1] the target is T1, Serine/threonine-protein kinase BRSK2 (Homo sapiens) (UniProt Q8IWQ3).
T1 sequence (whole entry): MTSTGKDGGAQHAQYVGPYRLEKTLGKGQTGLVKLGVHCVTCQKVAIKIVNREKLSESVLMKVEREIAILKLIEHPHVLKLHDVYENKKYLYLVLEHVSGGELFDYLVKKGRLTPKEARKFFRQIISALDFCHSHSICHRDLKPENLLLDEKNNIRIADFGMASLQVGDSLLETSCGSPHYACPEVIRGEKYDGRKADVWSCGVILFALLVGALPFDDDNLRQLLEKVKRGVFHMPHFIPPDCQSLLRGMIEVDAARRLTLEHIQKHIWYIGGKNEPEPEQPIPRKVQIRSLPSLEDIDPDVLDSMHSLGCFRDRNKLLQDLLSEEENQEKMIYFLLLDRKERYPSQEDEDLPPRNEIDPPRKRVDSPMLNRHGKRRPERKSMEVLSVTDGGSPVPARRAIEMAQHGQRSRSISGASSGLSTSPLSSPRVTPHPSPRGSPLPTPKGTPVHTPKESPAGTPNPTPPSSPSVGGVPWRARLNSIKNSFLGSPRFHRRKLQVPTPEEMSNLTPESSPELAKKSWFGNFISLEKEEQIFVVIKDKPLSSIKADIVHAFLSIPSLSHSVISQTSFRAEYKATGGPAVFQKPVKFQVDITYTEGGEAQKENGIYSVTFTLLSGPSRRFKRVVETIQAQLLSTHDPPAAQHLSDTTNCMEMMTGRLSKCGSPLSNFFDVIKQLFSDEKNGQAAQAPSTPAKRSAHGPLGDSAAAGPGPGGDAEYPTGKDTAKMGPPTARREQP
The following applies: Compound concentration 1000.0 nM.

Experiment [2] has as its target T2, Serine/threonine-protein kinase Nek3 (Homo sapiens) (UniProt P51956).
T2 sequence (whole entry): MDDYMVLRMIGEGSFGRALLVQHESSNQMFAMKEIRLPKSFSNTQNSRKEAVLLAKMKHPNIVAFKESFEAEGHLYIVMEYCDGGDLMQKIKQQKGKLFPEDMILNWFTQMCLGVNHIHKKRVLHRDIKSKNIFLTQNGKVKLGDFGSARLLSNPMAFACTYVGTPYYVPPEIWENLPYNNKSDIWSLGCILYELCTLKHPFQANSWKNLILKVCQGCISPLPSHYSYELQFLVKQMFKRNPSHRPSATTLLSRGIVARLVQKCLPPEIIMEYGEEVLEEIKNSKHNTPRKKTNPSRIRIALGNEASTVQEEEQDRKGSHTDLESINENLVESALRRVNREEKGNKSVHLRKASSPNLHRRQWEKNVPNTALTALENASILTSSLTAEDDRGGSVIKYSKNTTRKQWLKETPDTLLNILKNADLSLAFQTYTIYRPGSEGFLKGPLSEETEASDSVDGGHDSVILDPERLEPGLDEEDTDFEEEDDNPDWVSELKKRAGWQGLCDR
Particulars: Compound concentration 1000.0 nM.

Experiment [3] concerns the target Sodium-dependent serotonin transporter (Homo sapiens) (UniProt P31645). The following applies: Compound concentration 10.0 uM.
Experiment [4] has as its target Misshapen-like kinase 1 (Homo sapiens) (UniProt Q8N4C8). Particulars: Compound concentration 1000.0 nM.
Experiment [5] addresses T3, Serine/threonine-protein kinase 3 (Homo sapiens) (UniProt Q13188).
T3 sequence (whole entry): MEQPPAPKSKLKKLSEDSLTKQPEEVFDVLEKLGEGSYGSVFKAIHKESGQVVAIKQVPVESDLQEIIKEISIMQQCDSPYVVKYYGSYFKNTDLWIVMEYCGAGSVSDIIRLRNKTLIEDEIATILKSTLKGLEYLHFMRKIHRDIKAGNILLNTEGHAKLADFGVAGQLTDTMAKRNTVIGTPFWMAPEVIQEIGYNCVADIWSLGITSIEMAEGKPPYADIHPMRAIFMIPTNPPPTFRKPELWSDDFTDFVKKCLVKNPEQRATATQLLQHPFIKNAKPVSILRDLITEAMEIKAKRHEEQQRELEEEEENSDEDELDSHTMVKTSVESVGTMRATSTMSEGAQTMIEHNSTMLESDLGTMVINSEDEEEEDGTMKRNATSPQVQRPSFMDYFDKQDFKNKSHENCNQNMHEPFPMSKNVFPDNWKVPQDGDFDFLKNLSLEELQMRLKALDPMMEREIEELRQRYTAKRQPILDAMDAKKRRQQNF
The following applies: Compound concentration 1000.0 nM.

Experiment [6] has as its target Serine/threonine-protein kinase RIO3 (Homo sapiens) (UniProt O14730). The following applies: Compound concentration 1000.0 nM.
For experiment [7], the target named is Serine/threonine-protein kinase SIK2 (Homo sapiens) (UniProt Q9H0K1). Particulars: Compound concentration 1000.0 nM.
The target in experiment [8] is Bone morphogenetic protein receptor type-1A (Homo sapiens) (UniProt P36894). Particulars: Compound concentration 1000.0 nM.
For experiment [9], the system named is Epidermal growth factor receptor (Homo sapiens), P00533 [T790M]. Particulars: Compound concentration 1000.0 nM.
The target in experiment [10] is Tyrosine-protein kinase receptor UFO (Homo sapiens) (UniProt P30530). The following applies: Compound concentration 1000.0 nM.
Chain of Tyrosine-protein kinase receptor UFO (Homo sapiens) (P30530 whole entry): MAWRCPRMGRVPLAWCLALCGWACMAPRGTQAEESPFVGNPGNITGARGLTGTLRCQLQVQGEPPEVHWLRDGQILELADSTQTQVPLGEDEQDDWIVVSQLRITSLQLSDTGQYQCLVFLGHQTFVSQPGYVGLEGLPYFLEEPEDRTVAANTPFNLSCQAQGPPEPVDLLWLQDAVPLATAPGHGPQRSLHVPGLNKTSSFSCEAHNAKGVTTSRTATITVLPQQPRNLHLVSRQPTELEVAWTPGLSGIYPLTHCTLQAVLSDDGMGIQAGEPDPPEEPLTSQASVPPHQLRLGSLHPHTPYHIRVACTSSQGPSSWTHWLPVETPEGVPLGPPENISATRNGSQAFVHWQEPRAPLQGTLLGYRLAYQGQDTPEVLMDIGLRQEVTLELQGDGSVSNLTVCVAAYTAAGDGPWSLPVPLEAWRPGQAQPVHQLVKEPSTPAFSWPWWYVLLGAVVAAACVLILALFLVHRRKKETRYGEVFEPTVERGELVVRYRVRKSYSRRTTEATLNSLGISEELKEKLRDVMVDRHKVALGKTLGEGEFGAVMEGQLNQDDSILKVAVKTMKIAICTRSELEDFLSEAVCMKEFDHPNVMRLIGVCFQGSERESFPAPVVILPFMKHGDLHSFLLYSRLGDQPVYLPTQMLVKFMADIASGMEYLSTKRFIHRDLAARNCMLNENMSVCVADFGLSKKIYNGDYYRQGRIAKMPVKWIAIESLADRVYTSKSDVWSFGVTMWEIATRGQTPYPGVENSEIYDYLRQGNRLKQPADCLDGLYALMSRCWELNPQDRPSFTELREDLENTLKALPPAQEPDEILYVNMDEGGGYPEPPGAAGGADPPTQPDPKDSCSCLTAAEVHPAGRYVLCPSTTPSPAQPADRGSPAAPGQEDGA
The target of experiment [11] is Fibroblast growth factor receptor 2 (Homo sapiens) (UniProt P21802). The following applies: Compound concentration 1000.0 nM.
Chain of Fibroblast growth factor receptor 2 (Homo sapiens) (P21802 22-821 limits assumed): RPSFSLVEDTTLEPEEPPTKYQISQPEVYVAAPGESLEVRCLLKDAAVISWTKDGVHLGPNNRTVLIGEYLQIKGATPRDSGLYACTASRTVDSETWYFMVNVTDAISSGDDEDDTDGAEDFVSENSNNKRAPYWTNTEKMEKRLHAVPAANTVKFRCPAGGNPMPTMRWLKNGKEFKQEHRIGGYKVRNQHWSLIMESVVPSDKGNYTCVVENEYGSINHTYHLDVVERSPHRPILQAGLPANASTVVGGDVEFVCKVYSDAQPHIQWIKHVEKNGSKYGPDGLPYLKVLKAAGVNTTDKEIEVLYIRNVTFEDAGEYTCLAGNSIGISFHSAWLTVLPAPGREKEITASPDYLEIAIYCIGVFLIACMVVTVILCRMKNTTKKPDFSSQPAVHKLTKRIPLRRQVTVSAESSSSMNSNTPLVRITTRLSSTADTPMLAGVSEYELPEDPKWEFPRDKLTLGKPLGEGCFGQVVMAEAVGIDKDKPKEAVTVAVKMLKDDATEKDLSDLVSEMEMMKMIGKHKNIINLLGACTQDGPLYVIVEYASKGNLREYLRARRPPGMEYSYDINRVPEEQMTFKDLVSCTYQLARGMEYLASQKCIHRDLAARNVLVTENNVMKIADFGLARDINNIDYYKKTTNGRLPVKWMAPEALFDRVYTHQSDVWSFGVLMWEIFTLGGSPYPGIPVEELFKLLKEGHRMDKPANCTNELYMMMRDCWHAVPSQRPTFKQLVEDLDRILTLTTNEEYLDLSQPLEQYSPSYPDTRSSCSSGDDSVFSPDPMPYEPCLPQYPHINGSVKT
In experiment [12] the target is Mitotic checkpoint serine/threonine-protein kinase BUB1 (Homo sapiens) (UniProt O43683). Particulars: Compound concentration 1000.0 nM.
Experiment [13] deals with Ribosomal protein S6 kinase alpha-3 (Homo sapiens, UniProt P51812). Particulars: Compound concentration 1000.0 nM.
Chain of Ribosomal protein S6 kinase alpha-3 (P51812 whole entry): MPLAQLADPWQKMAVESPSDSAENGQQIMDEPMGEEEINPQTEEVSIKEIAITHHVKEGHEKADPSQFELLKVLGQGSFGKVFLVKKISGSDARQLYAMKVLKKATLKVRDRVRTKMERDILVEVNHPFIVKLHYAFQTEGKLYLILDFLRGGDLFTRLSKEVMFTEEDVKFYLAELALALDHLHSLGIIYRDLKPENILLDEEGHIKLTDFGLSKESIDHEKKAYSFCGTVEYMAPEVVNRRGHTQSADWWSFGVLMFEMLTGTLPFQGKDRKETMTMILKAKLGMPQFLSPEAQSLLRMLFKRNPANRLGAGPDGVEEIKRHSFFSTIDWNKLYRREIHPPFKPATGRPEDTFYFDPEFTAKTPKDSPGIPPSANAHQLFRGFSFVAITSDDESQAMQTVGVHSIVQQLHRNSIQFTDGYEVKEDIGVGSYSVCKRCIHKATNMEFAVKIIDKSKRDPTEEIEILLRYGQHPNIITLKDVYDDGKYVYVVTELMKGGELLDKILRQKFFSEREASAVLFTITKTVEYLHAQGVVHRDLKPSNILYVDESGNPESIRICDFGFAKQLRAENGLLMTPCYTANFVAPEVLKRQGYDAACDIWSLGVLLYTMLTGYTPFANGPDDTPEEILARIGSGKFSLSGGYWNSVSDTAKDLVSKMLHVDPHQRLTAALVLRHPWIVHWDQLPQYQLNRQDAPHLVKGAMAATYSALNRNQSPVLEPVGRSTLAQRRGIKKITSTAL
For experiment [14], the target named is Receptor-type tyrosine-protein kinase FLT3 (Homo sapiens) (UniProt P36888). The following applies: Compound concentration 1000.0 nM.
Experiment [15] addresses Cyclin-dependent kinase 11B (Homo sapiens) (UniProt P21127). Particulars: Compound concentration 1000.0 nM.
Experiment [16] addresses Mitogen-activated protein kinase kinase kinase kinase 5 (Homo sapiens) (UniProt Q9Y4K4). The following applies: Compound concentration 1000.0 nM.
Experiment [17] addresses Serine/threonine-protein kinase PknB (Mycobacterium tuberculosis) (UniProt P9WI81). The following applies: Compound concentration 1000.0 nM.
The target of experiment [18] is Serine/threonine-protein kinase PAK 3 (Homo sapiens) (UniProt O75914). The following applies: Compound concentration 1000.0 nM.
Experiment [19] deals with Mitogen-activated protein kinase kinase kinase 3 (Homo sapiens) (UniProt Q99759). Particulars: Compound concentration 1000.0 nM.
Experiment [20] has as its target 5'-AMP-activated protein kinase catalytic subunit alpha-1 (Homo sapiens, UniProt Q13131). The following applies: Compound concentration 1000.0 nM.

As usually defined, the inhibition is the relative decrease from the control value, in per cent.

Chain of Mitogen-activated protein kinase kinase kinase kinase 5 (Homo sapiens) (Q9Y4K4 whole entry, looked up): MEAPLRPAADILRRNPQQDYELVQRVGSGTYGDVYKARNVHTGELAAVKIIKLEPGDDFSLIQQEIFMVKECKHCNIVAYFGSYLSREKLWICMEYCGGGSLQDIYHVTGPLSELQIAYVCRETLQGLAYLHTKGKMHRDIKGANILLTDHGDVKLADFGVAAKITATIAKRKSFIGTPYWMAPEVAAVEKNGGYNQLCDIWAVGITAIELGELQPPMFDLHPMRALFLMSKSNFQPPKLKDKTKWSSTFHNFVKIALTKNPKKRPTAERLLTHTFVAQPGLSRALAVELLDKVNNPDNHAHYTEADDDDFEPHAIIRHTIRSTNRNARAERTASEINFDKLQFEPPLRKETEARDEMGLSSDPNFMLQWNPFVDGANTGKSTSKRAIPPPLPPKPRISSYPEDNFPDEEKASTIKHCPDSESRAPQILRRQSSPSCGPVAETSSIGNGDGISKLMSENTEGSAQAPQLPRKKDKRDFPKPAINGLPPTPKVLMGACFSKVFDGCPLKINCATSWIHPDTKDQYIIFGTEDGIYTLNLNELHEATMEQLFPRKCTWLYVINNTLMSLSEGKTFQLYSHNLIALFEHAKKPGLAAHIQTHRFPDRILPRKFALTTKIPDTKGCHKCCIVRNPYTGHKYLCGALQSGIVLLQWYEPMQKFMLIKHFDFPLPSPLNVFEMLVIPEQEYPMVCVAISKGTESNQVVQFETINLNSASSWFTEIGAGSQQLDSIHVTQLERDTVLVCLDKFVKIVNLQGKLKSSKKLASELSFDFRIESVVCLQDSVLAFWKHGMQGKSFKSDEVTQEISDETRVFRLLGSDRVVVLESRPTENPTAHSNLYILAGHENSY
Chain of Serine/threonine-protein kinase PknB (Mycobacterium tuberculosis) (P9WI81 whole entry): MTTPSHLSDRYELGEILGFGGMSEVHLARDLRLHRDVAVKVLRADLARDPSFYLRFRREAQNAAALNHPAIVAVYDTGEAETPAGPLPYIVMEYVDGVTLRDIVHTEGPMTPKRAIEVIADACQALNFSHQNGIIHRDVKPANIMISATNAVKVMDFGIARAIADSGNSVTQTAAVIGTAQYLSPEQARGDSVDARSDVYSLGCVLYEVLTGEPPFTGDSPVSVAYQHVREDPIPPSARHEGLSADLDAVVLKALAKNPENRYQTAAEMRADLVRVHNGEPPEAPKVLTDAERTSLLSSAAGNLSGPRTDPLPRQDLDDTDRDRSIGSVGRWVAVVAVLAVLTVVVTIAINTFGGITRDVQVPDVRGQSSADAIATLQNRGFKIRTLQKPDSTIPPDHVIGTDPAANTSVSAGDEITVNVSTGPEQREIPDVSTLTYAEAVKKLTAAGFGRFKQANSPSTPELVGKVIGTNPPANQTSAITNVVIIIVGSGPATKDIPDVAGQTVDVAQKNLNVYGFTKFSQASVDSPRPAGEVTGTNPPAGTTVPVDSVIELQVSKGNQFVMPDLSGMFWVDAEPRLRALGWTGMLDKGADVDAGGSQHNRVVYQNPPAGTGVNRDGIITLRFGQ
Chain of 5'-AMP-activated protein kinase catalytic subunit alpha-1 (Q13131 whole entry, looked up): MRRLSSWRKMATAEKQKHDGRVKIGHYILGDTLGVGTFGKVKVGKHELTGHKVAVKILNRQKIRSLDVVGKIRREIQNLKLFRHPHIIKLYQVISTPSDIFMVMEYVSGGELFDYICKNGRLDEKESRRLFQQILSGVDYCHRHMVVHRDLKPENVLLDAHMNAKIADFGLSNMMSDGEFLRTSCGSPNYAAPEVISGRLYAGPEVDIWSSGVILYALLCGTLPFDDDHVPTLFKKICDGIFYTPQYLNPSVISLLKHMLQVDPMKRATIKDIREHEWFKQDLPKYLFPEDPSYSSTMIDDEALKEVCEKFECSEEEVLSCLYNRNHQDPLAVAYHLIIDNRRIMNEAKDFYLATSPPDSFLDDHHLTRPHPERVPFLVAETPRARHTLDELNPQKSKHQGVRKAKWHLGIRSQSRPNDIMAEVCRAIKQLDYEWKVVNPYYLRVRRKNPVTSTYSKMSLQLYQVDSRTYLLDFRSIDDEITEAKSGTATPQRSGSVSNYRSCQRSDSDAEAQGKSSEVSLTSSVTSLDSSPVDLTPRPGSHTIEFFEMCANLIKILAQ
Chain of Serine/threonine-protein kinase RIO3 (Homo sapiens) (O14730 whole entry): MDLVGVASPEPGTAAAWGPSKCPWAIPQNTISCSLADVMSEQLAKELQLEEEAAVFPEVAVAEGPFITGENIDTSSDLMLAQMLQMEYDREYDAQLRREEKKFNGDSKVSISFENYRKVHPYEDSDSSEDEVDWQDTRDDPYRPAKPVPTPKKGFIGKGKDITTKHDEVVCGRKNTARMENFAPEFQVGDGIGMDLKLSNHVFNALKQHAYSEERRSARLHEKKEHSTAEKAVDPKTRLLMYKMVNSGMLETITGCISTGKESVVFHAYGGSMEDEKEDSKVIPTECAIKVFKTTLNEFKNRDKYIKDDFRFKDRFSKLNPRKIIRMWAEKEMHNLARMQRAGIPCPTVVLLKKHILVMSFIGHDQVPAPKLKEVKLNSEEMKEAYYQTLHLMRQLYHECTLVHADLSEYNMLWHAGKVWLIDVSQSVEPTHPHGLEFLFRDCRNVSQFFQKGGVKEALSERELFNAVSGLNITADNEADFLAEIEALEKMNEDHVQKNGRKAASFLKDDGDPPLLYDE

On to `CC1=C(C#N)C(c2ccc3c(c2)c(NC(=O)c2ccccc2C)nn3C)C(C#N)=C(C)N1` [BAY-974], for which the residual activity in [1] was 92%; in experiment [2], 94%; in experiment [4], 96%; in experiment [5], 100%; in experiment [6] it was 87%; in experiment [7] it was 93%. For the same compound, the residual activity in experiment [8] was 100%; in experiment [9], 100%; in experiment [10], 100%; in [11], 97%; in experiment [12], 74%; in experiment [13], 86%. In addition, the residual activity is 96% in [14]; 100% in experiment [15]; 100% in experiment [16]; 97% in experiment [17]; 67% in experiment [18]; 77% in experiment [19]. The residual activity in [20] was 77%. The inhibition in [3] is -6.29%.

In the case of `CCc1ccccc1C(=O)Nc1n[nH]c2c(C)c(F)c(C3C(C#N)=C(C)N(C)C(C)=C3C#N)cc12` [BAY-3827], the residual activity in [1] is 36%; in experiment [2], 100%; in [4], 99%; in [5] it was 80%; in experiment [6], 45%; in [7], 69%. For the same compound, the residual activity is 87% in experiment [8]; 100% in experiment [9]; 100% in [10]; 83% in experiment [11]; 100% in experiment [12]; 0.3% in experiment [13]. Besides, the residual activity in [14] is 88%; in experiment [15], 100%; in experiment [16], 100%; in [17], 85%; in experiment [18] it was 86%; in [19], 100%. For the same compound, the residual activity in experiment [20] was 7.5%. Further, the inhibition in [3] was -6.24%.
